Reference: patent US20220162215A1, “COMPOSITIONS AND METHODS OF USING THE SAME FOR TREATMENT OF NEURODEGENERATIVE AND MITOCHONDRIAL DISEASE” (MITOKININ, INC., priority 2019, published 2022)
pEC50: −log10 of the molar value. Read-outs that look alike come from different tables or passages of the source.

Assays:
[1] = test system: HeLa MKYP cells; experiment: Human mitophagy assay (HeLa MKYP, mtKeima FACS, FCCP/oligomycin); type: cell-based; conditions: Homo sapiens, HeLa; for pEC50: Table 3, read-out: Potency at 1 μM F/O toxin* (EC50 of mitophagy activation); for EC50: Table 3 Supplement A, as measured in Table 3, read-out: Potency (EC50 Max Mitophagy) (μM)*
Experimental: (§1) Briefly, HeLa MKYP cells were plated at 10,000 cells/well in 96 well plates along with compounds at various concentrations. Following 16 hrs of incubation, cells were treated with 1 uM FCCP/oligomycin for 6 hours, then analyzed via FACS for the presence of mitochondria in lysosomes (as determined by an emissions spectrum shift from the pH-sensitive mtKeima tag). Examples are shown in FIG. 1 through FIG. 13 below.

[2] = test system: HeLa MKYP cells; experiment: Toxicity / cell death measured by DAPI staining (take-up); type: cell-based; conditions: 50 μM
Experimental: H2O2 treatment was performed as a control for cell death as measured by DAPI staining.
as §1, with “tag).” for “tag). Examples are shown in FIG. 1 through FIG. 13 below.”

[3] = Visual inspection of crystallization; type: physicochemical; parameters: key: 1: yes crystals; 0: no crystals; conditions: Tables 5A-5D
Experimental: (§2) Briefly, the Hela MKYP (Mito-Keima/YFP-Parkin) cells were seeded at 10K cells/well. EP/MTK compounds were added at seeding (cells were still in suspension). The cells were incubated with the EP/MTK compounds for 16 hours, then 1 μM FCCP/oligomycin was added for 6 hours. Prior to harvesting, cells were scored by eye under 20× magnification for the presence or absence of crystalline or aggregated compound, or round cells.

[4] = test system: Hela MKYP (Mito-Keima/YFP-Parkin) cells; experiment: Inspection of round cells; conditions: Tables 6A-6D
Experimental: as §2

Structure (SMILES)	pEC50 [1]	EC50 [1] [µM]	Toxicity (% positive for DAPI takeup @ 50 μM) ([2]; Table 3) [%]	Toxicity (% positive for DAPI take-up at 50 μM)* ([2]; Table 3 Supplement A) [%]	Visual inspection of crystallization ([3]; 1.6 μM)	Visual inspection of crystallization ([3]; 3.1 μM)	Visual inspection of crystallization ([3]; 6.3 μM)	Visual inspection of crystallization ([3]; 12.5 μM)	Visual inspection of crystallization ([3]; 25.0 μM)	Visual inspection of crystallization ([3]; 50.0 μM)	Inspection of round cells ([4]; 1.6 μM)	Inspection of round cells ([4]; 3.1 μM)	Inspection of round cells ([4]; 6.3 μM)	Inspection of round cells ([4]; 12.5 μM)	Inspection of round cells ([4]; 25.0 μM)	Inspection of round cells ([4]; 50.0 μM)	Toxicity (% positive for DAPI take-up at 50 μM)* ([2]; human) [%]	Toxicity (% positive for DAPI takeup @ 50 μM) ([2]; human) [%]
COc1ncc(CNc2ncnc3[nH]c(C(F)(F)F)cc23)cn1 [Compound 66]	4.97	10.6	5.8	5.76	0	0	0	0	1	1	0	0	0	0	1	1		
C[C@H](Nc1ncnc2[nH]c(C(F)(F)F)cc12)c1cncnc1 [Compound 44]	5.51	3.15			0	0	0	0	0	0	0	0	0	0	0	0	23.68	23.7
CCCCNc1ncnc2c1cc(C(F)(F)F)n2C(C)=O [Compound 69]	< 4.30		36.6		0	0	0	0	0	0	0	0	0	0	0	0		
CC(Nc1ncnc2[nH]cnc12)c1ccccc1 (stereo not shown) [Compound 71]	5.46	2.69	18.2	22.24	0	0	0	0	0	0	0	0	0	0	0	0		
C[C@@H](Nc1ncnc2[nH]c(C(F)(F)F)cc12)c1ccccc1 [Compound 38]	5.51	3.62	63.7	52.58	0	0	0	0	0	0	0	0	0	0	0	1		
CC(Nc1ncnc2[nH]c(C3CC3)nc12)c1ccccc1 (stereo not shown) [Compound 28]	5.20	6.32	18.3	18.26	0	0	0	0	0	0	0	0	0	0	0	0		
